Assay results: PubChem BioAssay AID256 (DTP/NCI, 2004)
Several values for one entry are separate records, joined by “and”; a condition that tells them apart may be missing. Identical values can stand only once. Toxic doses and inconclusive results are not listed. How the source made its calls: active means survival T/C of 150% or more; inactive means T/C below 125% in these data.

Tested on: CD2F1 mice, L1210 leukemia ip, survival T/C
Experiment: NCI In Vivo Anticancer Drug Screen. Data for tumor model L1210 Leukemia (intraperitoneal) in CD2F1 (CDF1) mice
Details: higher = longer survival
Method in brief: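 In this screen, transplantable tumors were grown in mice given either the compound or its vehicle. Results were expressed as the treated measurement relative to the control measurement.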

[1] = endpoint: mean survival time, dose: 10.0 mg/kg/injection, schedule: Q01DX009 (ip), vehicle: saline
[2] = endpoint: mean survival time, dose: 100.0 mg/kg/injection, schedule: Q01DX009 (ip), vehicle: saline
[3] = endpoint: mean survival time, dose: 100.0 mg/kg/injection, schedule: Q01DX009 (ip), vehicle: saline with Tween-80
[4] = endpoint: mean survival time, dose: 200.0 mg/kg/injection, schedule: Q01DX009 (ip), vehicle: saline with Tween-80
[5] = endpoint: mean survival time, dose: 400.0 mg/kg/injection, schedule: Q01DX009 (ip), vehicle: saline with Tween-80
[6] = endpoint: mean survival time, dose: 100.0 mg/kg/injection, schedule: Q01DX001 (ip), vehicle: saline with Tween-80
[7] = endpoint: mean survival time, dose: 100.0 mg/kg/injection, schedule: Q04DX003 (ip), vehicle: saline with Tween-80
[8] = endpoint: mean survival time, dose: 200.0 mg/kg/injection, schedule: Q04DX003 (ip), vehicle: saline with Tween-80
[9] = endpoint: mean survival time, dose: 400.0 mg/kg/injection, schedule: Q04DX003 (ip), vehicle: saline with Tween-80

Measured: T/C

CSCS(=O)C[C@H](CO)NC(=O)/C=C/c1c(C)[nH]c(=O)[nH]c1=O (some centres not stated)
inactive: endpoint: mean survival time, dose: 0.03 mg/kg/injection, schedule: Q01DX009 (ip), vehicle: saline 104 % of control | endpoint: mean survival time, dose: 0.06 mg/kg/injection, schedule: Q01DX009 (ip), vehicle: saline 103 % of control | endpoint: mean survival time, dose: 0.08 mg/kg/injection, schedule: Q01DX009 (ip), vehicle: water 105 % of control and 110 % of control | endpoint: mean survival time, dose: 0.13 mg/kg/injection, schedule: Q01DX009 (ip), vehicle: saline 101 % of control | endpoint: mean survival time, dose: 0.13 mg/kg/injection, schedule: Q01DX010 (ip), vehicle: saline 102 % of control and 111 % of control | endpoint: mean survival time, dose: 0.15 mg/kg/injection, schedule: Q01DX009 (ip), vehicle: water 115 % of control and 110 % of control | endpoint: mean survival time, dose: 0.25 mg/kg/injection, schedule: Q01DX009 (ip), vehicle: saline 115 % of control | endpoint: mean survival time, dose: 0.25 mg/kg/injection, schedule: Q01DX010 (ip), vehicle: saline 113 % of control and 114 % of control | endpoint: mean survival time, dose: 0.3 mg/kg/injection, schedule: Q01DX009 (ip), vehicle: water 116 % of control | endpoint: mean survival time, dose: 0.5 mg/kg/injection, schedule: Q01DX009 (ip), vehicle: saline 114 % of control | endpoint: mean survival time, dose: 0.5 mg/kg/injection, schedule: Q01DX010 (ip), vehicle: saline 119 % of control and 112 % of control | endpoint: mean survival time, dose: 0.6 mg/kg/injection, schedule: Q01DX009 (ip), vehicle: water 101 % of control | endpoint: mean survival time, dose: 1.0 mg/kg/injection, schedule: Q01DX010 (ip), vehicle: saline 108 % of control

Cc1cc2ccccc2[n+](C)c1-c1ccccc1Cl (tested in a mixture with another compound)
inactive: endpoint: mean survival time, dose: 5.0 mg/kg/injection, schedule: Q01DX009 (ip), vehicle: saline 104 % of control | endpoint: mean survival time, dose: 5.0 mg/kg/injection, schedule: Q04DX003 (ip), vehicle: saline 101 % of control | [1] 100 % of control | endpoint: mean survival time, dose: 10.0 mg/kg/injection, schedule: Q04DX003 (ip), vehicle: saline 101 % of control | endpoint: mean survival time, dose: 20.0 mg/kg/injection, schedule: Q04DX003 (ip), vehicle: saline 105 % of control

COc1ccc(/C=C2\N=C(c3ccccc3)OC2=O)cc1OC
inactive: [2] 103 % of control | endpoint: mean survival time, dose: 200.0 mg/kg/injection, schedule: Q01DX009 (ip), vehicle: saline 98 % of control | endpoint: mean survival time, dose: 400.0 mg/kg/injection, schedule: Q01DX009 (ip), vehicle: saline 98 % of control

CC(=O)Nc1ccc(OC(=O)Nc2cccc(F)c2)cc1
inactive: [3] 91 % of control | [4] 95 % of control | [5] 91 % of control

O=C(COc1ccccc1)N(/N=C/c1ccccc1)C(=O)c1ccccc1
inactive: endpoint: mean survival time, dose: 100.0 mg/kg/injection, schedule: Q01DX009 (ip), vehicle: Klucel (hydroxypropylcellulose) (HPC) 96 % of control | endpoint: mean survival time, dose: 100.0 mg/kg/injection, schedule: Q04DX003 (ip), vehicle: Klucel (hydroxypropylcellulose) (HPC) 94 % of control | endpoint: mean survival time, dose: 200.0 mg/kg/injection, schedule: Q01DX009 (ip), vehicle: Klucel (hydroxypropylcellulose) (HPC) 96 % of control | endpoint: mean survival time, dose: 200.0 mg/kg/injection, schedule: Q04DX003 (ip), vehicle: Klucel (hydroxypropylcellulose) (HPC) 92 % of control | endpoint: mean survival time, dose: 400.0 mg/kg/injection, schedule: Q01DX009 (ip), vehicle: Klucel (hydroxypropylcellulose) (HPC) 89 % of control | endpoint: mean survival time, dose: 400.0 mg/kg/injection, schedule: Q04DX003 (ip), vehicle: Klucel (hydroxypropylcellulose) (HPC) 94 % of control

COc1nc(NC(C)C)nc(NC(C)C)n1
inactive: endpoint: mean survival time, dose: 50.0 mg/kg/injection, schedule: Q01DX009 (ip), vehicle: saline with Tween-80 97 % of control | [3] 107 % of control | endpoint: mean survival time, dose: 100.0 mg/kg/injection, schedule: Q04DX003 (ip), vehicle: saline 95 % of control | [4] 105 % of control | endpoint: mean survival time, dose: 200.0 mg/kg/injection, schedule: Q04DX003 (ip), vehicle: saline 100 % of control

ON(C(=Nc1ccccc1)c1ccccc1Cl)c1ccccc1
inactive: endpoint: mean survival time, dose: 6.25 mg/kg/injection, schedule: Q01DX009 (ip), vehicle: saline with Tween-80 106 % of control | endpoint: mean survival time, dose: 6.25 mg/kg/injection, schedule: Q04DX003 (ip), vehicle: saline with Tween-80 102 % of control | endpoint: mean survival time, dose: 12.5 mg/kg/injection, schedule: Q01DX009 (ip), vehicle: saline with Tween-80 101 % of control | endpoint: mean survival time, dose: 12.5 mg/kg/injection, schedule: Q04DX003 (ip), vehicle: saline with Tween-80 104 % of control | endpoint: mean survival time, dose: 25.0 mg/kg/injection, schedule: Q04DX003 (ip), vehicle: saline with Tween-80 102 % of control | endpoint: mean survival time, dose: 100.0 mg/kg/injection, schedule: Q01DX001 (ip), vehicle: saline 102 % of control | endpoint: mean survival time, dose: 200.0 mg/kg/injection, schedule: Q01DX001 (ip), vehicle: saline 102 % of control

CC1(Br)C(C)(Br)C(C)(Br)C(C)(Br)C(C)(Br)C1(C)Br (configuration not stated)
inactive: [6] 96 % of control | endpoint: mean survival time, dose: 200.0 mg/kg/injection, schedule: Q01DX001 (ip), vehicle: saline with Tween-80 101 % of control | endpoint: mean survival time, dose: 400.0 mg/kg/injection, schedule: Q01DX001 (ip), vehicle: saline with Tween-80 101 % of control

c1cc(-c2ncc[nH]2)ccn1
inactive: endpoint: mean survival time, dose: 25.0 mg/kg/injection, schedule: Q01DX001 (ip), vehicle: saline with Tween-80 112 % of control | endpoint: mean survival time, dose: 50.0 mg/kg/injection, schedule: Q01DX001 (ip), vehicle: saline with Tween-80 96 % of control | [6] 104 % of control

OCC1OC(n2cnc3c2NC=NCC3O)C(Cl)C1O (configuration not stated)
inactive: endpoint: median survival time, dose: 5.0 mg/kg/injection, schedule: Q01DX005 (ip), vehicle: other 101 % of control | endpoint: median survival time, dose: 10.0 mg/kg/injection, schedule: Q01DX005 (ip), vehicle: other 103 % of control | endpoint: median survival time, dose: 20.0 mg/kg/injection, schedule: Q01DX005 (ip), vehicle: other 96 % of control | endpoint: median survival time, dose: 30.0 mg/kg/injection, schedule: Q01DX005 (ip), vehicle: other 118 % of control | endpoint: median survival time, dose: 40.0 mg/kg/injection, schedule: Q01DX005 (ip), vehicle: other 106 % of control | endpoint: median survival time, dose: 60.0 mg/kg/injection, schedule: Q01DX005 (ip), vehicle: other 107 % of control | endpoint: median survival time, dose: 120.0 mg/kg/injection, schedule: Q01DX005 (ip), vehicle: other 100 % of control

CC(CCC/C=C/CCCN(C)C(=N)N)CC(C)C1OC(=O)C(C)C(O)/C=C/C(C)C(O)C(C)C(O)C(C)C(O)CCCC(O)CC2(O)OC(CC(OC(=O)CC(=O)O)CC(O)CC(O)C(C)C(O)/C=C/C=C/C1C)CC(O)C2O (configuration not stated)
inactive: endpoint: mean survival time, dose: 5.5 mg/kg/injection, schedule: Q01DX009 (ip), vehicle: saline 100 % of control

O=C(O)C(CNC(=O)C(F)(F)F)Cc1ccc([N+](=O)[O-])cc1 (configuration not stated)
inactive: endpoint: mean survival time, dose: 12.5 mg/kg/injection, schedule: Q01DX009 (ip), vehicle: saline 98 % of control and 101 % of control | endpoint: mean survival time, dose: 25.0 mg/kg/injection, schedule: Q01DX009 (ip), vehicle: saline 98 % of control | endpoint: mean survival time, dose: 50.0 mg/kg/injection, schedule: Q01DX009 (ip), vehicle: saline 97 % of control and 107 % of control | [2] 103 % of control

CC1(C)COC2(c3ccccc3)N1C(=C(Cl)Cl)OC(=O)C2(Cl)Cl (configuration not stated)
inactive: endpoint: mean survival time, dose: 75.0 mg/kg/injection, schedule: Q01DX001 (ip), vehicle: saline with Tween-80 101 % of control | endpoint: mean survival time, dose: 150.0 mg/kg/injection, schedule: Q01DX001 (ip), vehicle: saline with Tween-80 90 % of control | endpoint: mean survival time, dose: 300.0 mg/kg/injection, schedule: Q01DX001 (ip), vehicle: saline with Tween-80 109 % of control

CC(C)OC(=O)Nc1cc(C(F)(F)F)cc(C(F)(F)F)c1
inactive: [3] 113 % of control | [4] 94 % of control | [5] 92 % of control

Cc1ccc(NC(=O)NC2CCCCC2)cc1
inactive: [7] 93 % of control | [8] 90 % of control | [9] 93 % of control

CSc1nccc2c1nnn2C1OC(CO)C(O)C1O (configuration not stated)
inactive: endpoint: mean survival time, dose: 12.5 mg/kg/injection, schedule: Q01DX005 (ip), vehicle: other 101 % of control | endpoint: mean survival time, dose: 25.0 mg/kg/injection, schedule: Q01DX005 (ip), vehicle: other 101 % of control | endpoint: mean survival time, dose: 50.0 mg/kg/injection, schedule: Q01DX005 (ip), vehicle: other 97 % of control | endpoint: mean survival time, dose: 100.0 mg/kg/injection, schedule: Q01DX005 (ip), vehicle: other 101 % of control | endpoint: mean survival time, dose: 200.0 mg/kg/injection, schedule: Q01DX005 (ip), vehicle: other 100 % of control

CN(C)CC1CCCCC(CN(C)C)C1=O (configuration not stated)
inactive: endpoint: mean survival time, dose: 75.0 mg/kg/injection, schedule: Q01DX001 (ip), vehicle: saline 120 % of control | endpoint: mean survival time, dose: 150.0 mg/kg/injection, schedule: Q01DX001 (ip), vehicle: saline 104 % of control | endpoint: mean survival time, dose: 300.0 mg/kg/injection, schedule: Q01DX001 (ip), vehicle: saline 104 % of control

ClCCn1c(CCl)nc2ccccc21
inactive: [1] 98 % of control | endpoint: mean survival time, dose: 20.0 mg/kg/injection, schedule: Q01DX009 (ip), vehicle: saline 94 % of control

CCCCCCC(O)CCCCCCCCCCC(=O)O (configuration not stated)
inactive: [7] 98 % of control | [8] 92 % of control | [9] 90 % of control
